# Assay results reported in paper PMC6269778, “Efficient Synthesis of 2-Amino-6-Arylbenzothiazoles via Pd(0) Suzuki Cross Coupling Reactions: Potent Urease Enzyme Inhibition and Nitric Oxide Scavenging Activities of the Products” (Molecules, 2013).
# Several values for one entry are separate records, joined by “and”; a condition that tells them apart may be missing. Identical values can stand only once.
# What was measured:
# [1] = NO scavenging activity (sodium nitroprusside / Griess reagent); settings: for Nitric Oxide Percentage Scavenging Activity at 25 µg/mL / Nitric Oxide Percentage Scavenging Activity at 50 µg/mL / Nitric Oxide Percentage Scavenging Activity at 100 µg/mL: mean ± SD of three parallel measurements; for IC50 (nitric oxide scavenging): NO scavenging
# urease = urease (Canavalia ensiformis, UniProt P07374); test: biochemical; format: biochemical; settings: for inhibition at 25 µg/mL: read-out: Percentage inhibition at 25 µg/mL; for inhibition at 50 µg/mL: read-out: Percentage inhibition at 50 µg/mL
# Protocol: The newly synthesized compounds 3a–e were examined for their urease inhibition activities in vitro at 25 and 50 μg/mL concentrations. […] Thus, enzyme stops catalyzing hydrolysis and the activity of the enzyme is inhibited.
# The urease inhibitory activity of the synthesized compounds 2, 3a–e, 4 was determined as follows: phosphate buffer (pH 7, 200 µL) containing 1 unit of enzyme was mixed with phosphate buffer (230 µL) and of a particular stock solution (20 µL, thiourea or the test compound). The reaction mixture was incubated at 25 °C for 5 min. After the incubation period urea stock solution (400 µL, 20 mM) was added. Calibration mixture was prepared with no urea solution. All test tubes were further incubated at 40 °C for the action of urease for 10 min. This was followed by the addition of phenol hypochlorite reagent (1150 µL). Tubes were again incubated at 56 °C for 25 min. […] The IC50 values were determined using the EZ-fit kinetic data base.
# Chain of urease (P07374 whole entry, looked up): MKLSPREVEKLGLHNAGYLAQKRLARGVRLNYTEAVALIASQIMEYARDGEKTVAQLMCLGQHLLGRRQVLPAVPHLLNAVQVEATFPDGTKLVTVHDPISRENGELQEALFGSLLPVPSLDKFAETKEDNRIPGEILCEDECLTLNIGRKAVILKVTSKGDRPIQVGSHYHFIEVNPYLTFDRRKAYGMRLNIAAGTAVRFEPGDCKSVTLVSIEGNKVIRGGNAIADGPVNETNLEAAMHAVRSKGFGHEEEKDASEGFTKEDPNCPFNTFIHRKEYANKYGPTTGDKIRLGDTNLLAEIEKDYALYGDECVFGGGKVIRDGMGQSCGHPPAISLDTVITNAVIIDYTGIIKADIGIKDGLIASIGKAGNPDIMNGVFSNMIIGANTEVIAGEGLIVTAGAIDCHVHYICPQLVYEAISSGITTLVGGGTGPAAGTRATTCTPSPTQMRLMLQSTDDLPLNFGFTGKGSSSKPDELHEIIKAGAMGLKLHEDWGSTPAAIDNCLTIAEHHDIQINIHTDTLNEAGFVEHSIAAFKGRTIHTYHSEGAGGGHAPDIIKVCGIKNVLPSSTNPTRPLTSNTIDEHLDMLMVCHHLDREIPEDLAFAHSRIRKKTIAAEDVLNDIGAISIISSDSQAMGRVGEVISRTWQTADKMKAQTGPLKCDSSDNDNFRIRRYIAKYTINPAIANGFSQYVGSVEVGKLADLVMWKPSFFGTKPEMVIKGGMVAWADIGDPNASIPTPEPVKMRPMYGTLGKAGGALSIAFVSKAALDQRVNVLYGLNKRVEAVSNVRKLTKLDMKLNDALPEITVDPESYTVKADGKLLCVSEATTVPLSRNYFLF
Compound,Nitric Oxide Percentage Scavenging Activity at 25 µg/mL [1],Nitric Oxide Percentage Scavenging Activity at 50 µg/mL [1],Nitric Oxide Percentage Scavenging Activity at 100 µg/mL [1],IC50 (nitric oxide scavenging) [1],IC50 (urease),inhibition at 25 µg/mL (urease),inhibition at 50 µg/mL (urease),melting point,"IC50 (urease inhibition) (urease; urease, EZ-fit)"
"Nc1nc2ccc(-c3ccccc3)cc2s1 [Compound 3e, 6-Phenylbenzo[d]thiazole-2-amine]",9 ± 0.007%,22 ± 0.001%,52 ± 0.001%,96.66 µg/mL,116 µM,48 ± 0.005%,85 ± 0.002%,,
"O=C1O[C@H]([C@@H](O)CO)C(O)=C1O [Ascorbic acid, reference compound]",40.5 ± 0.01%,70.50 ± 0.91%,99.5 ± 0.91%,,,,,,
"Nc1nc2ccc(Br)cc2s1 [Compound 2, 6-Bromobenzo[d]thiazole-2-amine]",20 ± 0.004%,48 ± 0.0007%,90 ± 0.007% and 90 ± 0.0007%,57.8 µg/mL,124 µM,43 ± 0.0034%,95 ± 0.005%,,
"COc1ccc(-c2ccc3nc(N)sc3c2)cc1 [Compound 3c, 6-(4-Methoxyphenyl)benzo[d]thiazole-2-amine]",31 ± 0.022%,67 ± 0.002%,,38.19 µg/mL,111 µM,44 ± 0.005%,86.24 ± 0.001%,165 to 167 °C,
"NC(N)=S [Thiourea, reference compound]",,,,,,,,,34.65 µg/mL
"CC(=O)Nc1nc2ccc(Br)cc2s1 [Compound 4, N-(6-Bromobenzo[d]thiazol-2-yl)acetamide]",,,,,112 µM,39 ± 0.001%,89 ± 0.009%,,
"Nc1nc2ccc(-c3cc(C(F)(F)F)cc(C(F)(F)F)c3)cc2s1 [Compound 3d, 6-(3,5-bis(Triflouromethyl)phenyl)benzo[d]thiazole-2-amine]",10 ± 0.01%,23 ± 0.009%,63 ± 0.009%,83.75 µg/mL,79.7 µM,43 ± 0.007%,88.6 ± 0.002%,180 to 182 °C,
"Nc1nc2ccc(-c3ccc(Cl)cc3)cc2s1 [Compound 3b, 6-(4-Chlorophenyl)benzo[d]thiazole-2-amine]",17 ± 0.006%,34 ± 0.005%,66 ± 0.005%,75 µg/mL,117 µM,39 ± 0.0012%,88.19 ± 0.007%,194 to 196 °C,
"Cc1ccc(-c2ccc3nc(N)sc3c2)cc1 [Compound 3a, 6-p-Tolylbenzo[d]thiazole-2-amine]",24 ± 0.003%,67 ± 0.009% and 56 ± 0.001%,95 ± 0.001%,38.19 µg/mL,113 µM,46 ± 0.005%,90.49 ± 0.002%,184 to 186 °C,
